As a reminder, the IC50 is the point on the concentration scale where inhibition reaches its midpoint.

This test has as its target T1, Full length human recombinant HDAC6 protein (Homo sapiens, UniProt Q9UBN7).
T1 construct: made in house
T1 sequence (Q9UBN7 1-1215): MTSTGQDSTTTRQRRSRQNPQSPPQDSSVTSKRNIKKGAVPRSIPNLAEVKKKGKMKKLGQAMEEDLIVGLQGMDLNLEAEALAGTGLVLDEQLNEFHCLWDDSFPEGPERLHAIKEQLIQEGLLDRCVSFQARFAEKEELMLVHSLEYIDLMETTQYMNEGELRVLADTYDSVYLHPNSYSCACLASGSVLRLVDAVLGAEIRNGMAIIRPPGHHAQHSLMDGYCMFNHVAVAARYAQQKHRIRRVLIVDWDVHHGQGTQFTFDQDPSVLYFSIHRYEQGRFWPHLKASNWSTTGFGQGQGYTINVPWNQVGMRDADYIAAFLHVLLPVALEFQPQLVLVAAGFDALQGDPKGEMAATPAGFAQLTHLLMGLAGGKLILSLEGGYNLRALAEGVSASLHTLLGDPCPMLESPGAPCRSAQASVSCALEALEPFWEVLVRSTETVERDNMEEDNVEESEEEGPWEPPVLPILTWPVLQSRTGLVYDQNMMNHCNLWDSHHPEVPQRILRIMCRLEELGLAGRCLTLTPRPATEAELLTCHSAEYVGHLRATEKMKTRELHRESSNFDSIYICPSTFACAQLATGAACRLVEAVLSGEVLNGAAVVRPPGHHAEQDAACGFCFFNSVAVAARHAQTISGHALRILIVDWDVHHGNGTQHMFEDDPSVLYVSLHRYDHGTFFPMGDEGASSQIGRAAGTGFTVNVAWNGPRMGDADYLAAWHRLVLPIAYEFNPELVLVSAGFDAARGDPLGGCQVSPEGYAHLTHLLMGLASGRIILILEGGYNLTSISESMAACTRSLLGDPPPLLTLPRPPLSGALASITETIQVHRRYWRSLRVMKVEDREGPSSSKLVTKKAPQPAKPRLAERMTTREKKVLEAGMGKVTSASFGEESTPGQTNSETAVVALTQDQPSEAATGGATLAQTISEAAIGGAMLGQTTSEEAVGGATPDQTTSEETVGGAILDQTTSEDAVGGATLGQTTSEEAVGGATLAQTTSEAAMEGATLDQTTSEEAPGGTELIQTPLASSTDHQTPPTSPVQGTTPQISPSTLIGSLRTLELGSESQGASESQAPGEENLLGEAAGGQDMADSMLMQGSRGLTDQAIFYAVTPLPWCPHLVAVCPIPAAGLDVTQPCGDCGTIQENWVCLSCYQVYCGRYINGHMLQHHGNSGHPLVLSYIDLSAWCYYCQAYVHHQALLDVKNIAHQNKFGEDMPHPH
The experiment in a line: In vitro histone deacetylase assay: enzymatic HDAC6 electrophoretic mobility shift assay. It is filed as biochemical. Particulars: peptide substrate RHKK(Ac)-NH2 2 μM, enzyme 1 nM, 25° C., 12 concentrations; read-out: HDAC6 activity range (IC50). As to the method: The enzymatic HDAC6 assay was performed using electrophoretic mobility shift assay. Full length human recombinant HDAC6 protein was expressed in baculoviral system and purified by affinity chromatography. The enzymatic reactions were assembled in 384 well plates in a total volume of 25 μL in a reaction buffer composing: 100 mM HEPES, pH 7.5, 25 mM KCl, 0.1% bovine serum albumin, 0.01% Triton X-100, 1% DMSO (from compounds) 2 μM of the fluorescently labeled peptide substrate and enzyme. The enzyme was added at a final concentration of 1 nM. The peptide substrate RHKK(Ac)-NH2 was used. The compounds were tested at 12 concentrations spaced by 3× dilution intervals. Negative control samples (0%-inhibition in the absence of inhibitor) and positive control samples (100%-inhibition) were assembled in replicates of four in each assay plate. The reactions were incubated at 25° C. and quenched by the addition of 45 μL of termination buffer (100 mM HEPES, pH 7.5, 0.01% Triton X-100, 0.05% SDS).
The terminated assay plates were analyzed on LabChip® 3000 microfluidic electrophoresis instrument (Perkin Elmer/Caliper Life Sciences). The fluorescence intensity of the electrophoretically separated de-acetylated product and substrate peptide was measured. Activity in each sample was determined as the product to sum ratio (PSR): P/(S+P), where P is the peak height of the product peptide and S is the peak height of the substrate peptide. Percent inhibition (Pinh) is determined using the following equation:
Pinh=(PSR0%−PSRinh)/(PSR0%−PSR100%)*100, where PSRinh is the product sum ratio in the presence of inhibitor, PSR0% is the average product sum ration in the absence of inhibitor and PSR100% is the average product sum ratio in 100%-inhibition control samples. The IC50 values of inhibitors were determined by fitting the %-inhibition curves with 4 parameter dose-response model using XLfit 4 software.
As set forth in Table-7, below, IC50 values are defined as follows: IC50≤0.01 μM (+++); IC50>0.01 μM and ≤0.05 μM (++); IC50>0.05 μM (+).
Take `O=C(NO)c1ccc2c(c1)C[C@@]1(CCN(Cc3ccccc3)C1)C2` [Compound I-26, (R)-1′-benzyl-N-hydroxy-1,3-dihydrospiro[indene-2,3′-pyrrolidine]-5-carboxamide]: the IC50 was 10 to 50 nM.
As for `O=C(NO)c1ccc2c(c1)C[C@@]1(CCCN(Cc3ccccc3)C1=O)C2` [Compound I-34, (R)-1′-benzyl-N-hydroxy-2′-oxo-1,3-dihydrospiro[indene-2,3′-piperidine]-5-carboxamide], the figure is ≤ 10 nM.
With `O=C(NO)c1ccc2c(c1)C[C@]1(CCN(c3ccncc3)C1=O)C2` [Compound I-22, (S)—N-hydroxy-2′-oxo-1′-(pyridin-4-yl)-1,3-dihydrospiro[indene-2,3′-pyrrolidine]-5-carboxamide], the IC50 lay within 10 to 50 nM.
The same measure for `O=C(NO)c1ccc2c(c1)C[C@@]1(CCN(c3ccccc3)C1=O)C2` [Compound I-13, (R)—N-hydroxy-2′-oxo-1′-phenyl-1,3-dihydrospiro[indene-2,3′-pyrrolidine]-5-carboxamide]: 10 to 50 nM; for `O=C(NO)c1ccc2c(c1)C[C@@]1(CCCN(c3ccccc3)C1=O)C2` [Compound I-36, (R)—N-hydroxy-2′-oxo-1′-phenyl-1,3-dihydrospiro[indene-2,3′-piperidine]-5-carboxamide]: ≤ 10 nM; for `O=C(NO)c1ccc2c(c1)C[C@]1(CCN(C(=O)c3ccccc3)C1)C2` [Compound I-31, (S)-1′-benzoyl-N-hydroxy-1,3-dihydrospiro[indene-2,3′-pyrrolidine]-5-carboxamide]: ≤ 10 nM.
The same measure for `Cc1ccccc1CN1CC[C@@]2(Cc3ccc(C(=O)NO)cc3C2)C1=O` [Compound I-10, (S)—N-hydroxy-1′-(2-methylbenzyl)-2′-oxo-1,3-dihydrospiro[indene-2,3′-pyrrolidine]-5-carboxamide]: 10 to 50 nM; for `CN1CC[C@]2(Cc3ccc(C(=O)NO)cc3C2)C1=O` [Compound I-1, (R)—N-hydroxy-1′-methyl-2′-oxo-1,3-dihydrospiro[indene-2,3′-pyrrolidine]-5-carboxamide]: 10 to 50 nM.
As for `O=C(NO)c1ccc2c(c1)C[C@@]1(CCN(c3cccnc3)C1=O)C2` [Compound I-17, (R)—N-hydroxy-2′-oxo-1′-(pyridin-3-yl)-1,3-dihydrospiro[indene-2,3′-pyrrolidine]-5-carboxamide], the figure is ≤ 10 nM.
As for `O=C(NO)c1ccc2c(c1)C[C@]1(CCN(c3ccccc3)C1=O)C2` [Compound I-14, (S)—N-hydroxy-2′-oxo-1′-phenyl-1,3-dihydrospiro[indene-2,3′-pyrrolidine]-5-carboxamide], the IC50 lay in the range of 10 to 50 nM.
The same measure for `CN1CC[C@@]2(Cc3ccc(C(=O)NO)cc3C2)C1=O` [Compound I-2, (S)—N-hydroxy-1′-methyl-2′-oxo-1,3-dihydrospiro[indene-2,3′-pyrrolidine]-5-carboxamide]: 10 to 50 nM.
